Measurements taken from ChEMBL document CHEMBL5385847, “Design, synthesis and biological evaluation of a new class of 7H-pyrrolo[2,3-d]pyrimidine derivatives as Mps1 inhibitors for the treatment of breast cancer” (Eur J Med Chem, 2023).
Calls of active or inactive are those of the source. No cut-off for these calls is given here.

Tests used:
[1] = Toxicity in BALB/C mouse xenografted with mouse 4T1-Luc cells assessed as change in blood biochemical parameters at 30 to 60 mg/kg, po qd treated for 15 days; format: organism-based; conditions: in vivo, 360 h, dose 30-60 mg/kg, time 15 day
4T1-Luc = assay: Antitumor activity against mouse 4T1-Luc cells xenografted in BALB/C mouse assessed as reduction in tumor growth at 30 to 60 mg/kg, po qd measured after 10 days by IVIS analysis; format: functional, organism-based; conditions: dose 30-60 mg/kg, time 10.0 day
4T1 [2] = assay: Induction of apoptosis in 4T1 cells assessed as late apoptotic cells at 1 uM incubated for 48 hrs by Annexin V-FITC/PI staining based flow cytometry (reference value: 1.73 %); format: functional, Mus musculus
4T1 [3] = assay: Induction of apoptosis in 4T1 cells assessed as necrotic cells at 0.5 uM incubated for 48 hrs by Annexin V-FITC/PI staining based flow cytometry (reference value: 0.20 %); format: functional, Mus musculus
MCF7 [4] = assay: Induction of apoptosis in human MCF7 cells assessed as late apoptotic cells at 1 uM incubated for 48 hrs by Annexin V-FITC/PI staining based flow cytometry (reference value: 0.63 %); format: functional
MCF7 [5] = assay: Induction of apoptosis in human MCF7 cells assessed as late apoptotic cells at 0.5 uM incubated for 48 hrs by Annexin V-FITC/PI staining based flow cytometry (reference value: 0.63 %); format: functional
A549 = assay: Antiproliferative activity against human A549 cells assessed as inhibition of cell viability upto 10 uM incubated for 72 hrs by MTT assay; format: functional, cell-based
HCT-116 = assay: Antiproliferative activity against human HCT-116 cells assessed as inhibition of cell viability by MTT assay; format: functional, cell-based
[6] = biological target: Cytoplasmic tyrosine-protein kinase BMX (Homo sapiens) (UniProt P51813); assay: Inhibition of human Bmx at 0.1 uM by KINOMEscan assay relative to control
Sequence of Cytoplasmic tyrosine-protein kinase BMX (Homo sapiens) (P51813 whole entry): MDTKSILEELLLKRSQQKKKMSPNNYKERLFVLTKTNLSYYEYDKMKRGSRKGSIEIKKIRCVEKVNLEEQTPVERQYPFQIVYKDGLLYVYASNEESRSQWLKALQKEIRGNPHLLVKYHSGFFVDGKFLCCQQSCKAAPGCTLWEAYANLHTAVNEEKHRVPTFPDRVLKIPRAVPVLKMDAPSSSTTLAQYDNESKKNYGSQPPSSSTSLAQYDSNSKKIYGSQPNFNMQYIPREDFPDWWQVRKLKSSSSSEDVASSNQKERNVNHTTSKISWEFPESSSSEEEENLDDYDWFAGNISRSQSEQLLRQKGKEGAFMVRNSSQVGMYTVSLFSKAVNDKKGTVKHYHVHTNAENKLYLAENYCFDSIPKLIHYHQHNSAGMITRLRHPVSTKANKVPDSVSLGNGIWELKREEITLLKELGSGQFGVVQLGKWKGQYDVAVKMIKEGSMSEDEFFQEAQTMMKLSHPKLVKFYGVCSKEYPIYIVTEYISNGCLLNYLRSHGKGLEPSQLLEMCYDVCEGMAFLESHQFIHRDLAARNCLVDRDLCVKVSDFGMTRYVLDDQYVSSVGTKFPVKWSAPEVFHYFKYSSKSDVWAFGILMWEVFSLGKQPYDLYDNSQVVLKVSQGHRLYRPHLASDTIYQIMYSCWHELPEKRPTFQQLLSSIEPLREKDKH

[7] = biological target: Cytoplasmic tyrosine-protein kinase BMX (Homo sapiens) (UniProt P51813); assay: Inhibition of human Bmx at 1 uM by KINOMEscan assay relative to control

For `CN1CCN(c2ccc(Nc3nc(-n4nc(N)c5ccccc54)c4cc[nH]c4n3)cc2)CC1`, the Activity [1] was “Non-Toxic”, the Activity (4T1-Luc) was “Active” and the Activity (4T1 [2]) was 5.58%. The Activity (4T1 [3]) was 0.7%, the Activity (MCF7 [4]) was 14.31% and the Activity (MCF7 [5]) was 4.51%. The inhibition (A549) was “Active”, the IC50 (HCT-116) was 1.06 µM and the inhibition [6] was 55%. It also gave an inhibition [7] of 95%.
